# Reference: ChEMBL document CHEMBL1146505, “Flavonoid glycosides from Adina racemosa and their inhibitory activities on eukaryotic protein synthesis” (2004)
# Activity calls are given as the source filed them. The calls are words filed in the database; no cut-off is given here.
# Columns and labels:
# Type in all cases: functional
# [1] = Inhibition of translation in mouse Krebs cells overexpressing (CAG)33/FF/HCV/Ren mRNA reporter transcript assessed as luciferase production at 100 uM relative to control
# Krebs [2] = assay: (§1) Inhibition of protein synthesis in mouse Krebs cells overexpressing (CAG)33/FF/HCV/Ren mRNA reporter transcript assessed as firefly luciferase production at 100 uM relative to control
# Krebs [3] = assay: (§2) Inhibition of protein synthesis in mouse Krebs cells overexpressing (CAG)33/FF/HCV/Ren mRNA reporter transcript assessed as renilla luciferase production at 100 uM relative to control
# [4] = as §1
# [5] = as §2
# Escherichia coli = assay: Inhibition of bacterial protein synthesis in Escherichia coli S30 overexpressing pBEST/luc and [35S]met assessed as [35S]met incorporation
# Oryctolagus cuniculus = species: Oryctolagus cuniculus; assay: Inhibition of translation initiation in rabbit reticulocyte lysates with [32P]CAT mRNA assessed as 80S initiation complex formation at 50 uM by ribosome binding assay in presence of cycloheximide
Compound,fold change (FC) [1],Activity (Krebs [2]),Activity (Krebs [3]),fold change (FC) [4],fold change (FC) [5],Activity (Escherichia coli),Activity (Oryctolagus cuniculus)
C[C@@H]1O[C@@H](OC[C@H]2O[C@@H](Oc3c(-c4ccc(O)cc4)oc4cc(O)cc(O)c4c3=O)[C@H](O[C@@H]3O[C@@H](C)[C@H](OC(=O)/C=C/c4ccc(O)cc4)[C@@H](O)[C@H]3O)[C@@H](O)[C@H]2OC(=O)/C=C/c2ccc(O)cc2)[C@H](O)[C@H](O)[C@H]1O,5,Active,Active,,,,
C[C@@H]1O[C@@H](OC[C@H]2O[C@@H](Oc3c(-c4ccc(O)c(O)c4)oc4cc(O)cc(O)c4c3=O)[C@H](O[C@@H]3O[C@@H](C)[C@H](OC(=O)/C=C/c4ccc(O)cc4)[C@@H](O)[C@H]3O)[C@@H](OC(=O)/C=C/c3ccc(O)cc3)[C@H]2O)[C@H](O)[C@H](O)[C@H]1O,10,Active,Active,,,,
C[C@@H]1O[C@@H](OC[C@H]2O[C@@H](Oc3c(-c4ccc(O)c(O)c4)oc4cc(O)cc(O)c4c3=O)[C@H](O)[C@@H](OC(=O)/C=C/c3ccc(O)cc3)[C@H]2O)[C@H](O)[C@H](O)[C@H]1O,,,,2,2,,
C[C@@H]1O[C@@H](OC[C@H]2O[C@@H](Oc3c(-c4ccc(O)c(O)c4)oc4cc(O)cc(O)c4c3=O)[C@H](O[C@@H]3O[C@@H](C)[C@H](OC(=O)/C=C/c4ccc(O)cc4)[C@@H](O)[C@H]3O)[C@@H](O)[C@H]2OC(=O)/C=C/c2ccc(O)cc2)[C@H](O)[C@H](O)[C@H]1O,5,Active,Active,,,,
C[C@@H]1O[C@@H](OC[C@H]2O[C@@H](Oc3c(-c4ccc(O)c(O)c4)oc4cc(O)cc(O)c4c3=O)[C@H](O[C@@H]3O[C@@H](C)[C@H](OC(=O)/C=C/c4ccc(O)c(O)c4)[C@@H](O)[C@H]3O)[C@@H](OC(=O)/C=C/c3ccc(O)cc3)[C@H]2O)[C@H](O)[C@H](O)[C@H]1O,10,Active,Active,,,inactive,inactive
C[C@@H]1O[C@@H](OC[C@H]2O[C@@H](Oc3c(-c4ccc(O)cc4)oc4cc(O)cc(O)c4c3=O)[C@H](O)[C@@H](O)[C@H]2OC(=O)/C=C/c2ccccc2)[C@H](O)[C@H](O)[C@H]1O,,,,2,2,,
C[C@@H]1O[C@@H](OC[C@H]2O[C@@H](Oc3c(-c4ccc(O)c(O)c4)oc4cc(O)cc(O)c4c3=O)[C@H](O)[C@@H](O)[C@H]2OC(=O)/C=C/c2ccc(O)cc2)[C@H](O)[C@H](O)[C@H]1O,,,,2,2,,
